Source: US20090111801A1, “SUBSTITUTED PYRAZINONE DERIVATIVES FOR USE AS A MEDICINE” (Janssen Pharmaceutica N.V., priority 2006, published 2009)

What was measured:
hα2C receptor = target: T1, hα2C receptor (Homo sapiens, UniProt P18825); test: Radioligand binding experiment for α2C-adrenoceptor ([3H]raulwolscine, CHO cell membranes); conditions: [3H]raulwolscine binding; for IC50: read-out: h-α2C pIC50 (converted)
T1 construct: expressed in transfected cells; host or cells: CHO cells, stably transfected; membrane preparation
T1 sequence (P18825 1-462): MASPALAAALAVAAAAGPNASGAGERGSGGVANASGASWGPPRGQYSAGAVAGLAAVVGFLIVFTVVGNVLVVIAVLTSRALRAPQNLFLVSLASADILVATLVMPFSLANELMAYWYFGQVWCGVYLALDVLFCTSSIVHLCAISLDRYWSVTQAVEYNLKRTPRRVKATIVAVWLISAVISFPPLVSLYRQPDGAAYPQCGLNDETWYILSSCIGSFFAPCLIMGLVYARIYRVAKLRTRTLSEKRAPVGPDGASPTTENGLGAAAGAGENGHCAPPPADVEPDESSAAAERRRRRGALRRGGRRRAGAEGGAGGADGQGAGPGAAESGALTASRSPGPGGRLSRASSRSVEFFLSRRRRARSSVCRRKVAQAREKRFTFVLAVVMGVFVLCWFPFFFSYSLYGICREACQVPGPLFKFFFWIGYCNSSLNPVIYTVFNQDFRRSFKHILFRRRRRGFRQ
Method: (§1) The interaction of a compound of Formula (I) with α2-adrenoceptor receptors was assessed in in vitro radioligand binding experiments. In general, a low concentration of a radioligand with a high binding affinity for a particular receptor or transporter is incubated with a sample of a tissue preparation enriched in a particular receptor or transporter or with a preparation of cells expressing cloned human receptors in a buffered medium. During the incubation, the radioligand binds to the receptor or transporter. When equilibrium of binding is reached, the receptor bound radioactivity is separated from the non-bound radioactivity, and the receptor- or transporter-bound activity is counted. The interaction of the test compounds with the receptor is assessed in competition binding experiments. Various concentrations of the test compound are added to the incubation mixture containing the receptor- or transporter preparation and the radioligand. The test compound in proportion to its binding affinity and its concentration inhibits binding of the radioligand. The radioligand used for hα2A and hα2C receptor binding was [^3H]-raulwolscine.
(§2) CHO cells, stabile transfected with human adrenergic-α2A and α2C receptor cDNA, were cultured in Dulbecco's Modified Eagle's Medium (DMEM)/Nutrient mixture Ham's F12 (ratio 1:1)(Gibco, Gent-Belgium) supplemented with 10% heat inactivated fetal calf serum (Life Technologies, Merelbeke-Belgium) and antibiotics (100 IU/ml penicillin G, 100 μg/ml streptomycin sulphate, 110 μg/ml pyruvic acid and 100 μg/ml L-glutamine). One day before collection, cells were induced with 5 mM sodiumbutyrate. Upon 80-90% of confluence, cells were scraped in phosphate buffered saline without Ca^2+ and Mg^2+ and collected by centrifugation at 1500×g for 10 minutes. The cells were homogenised in Tris-HCl 50 mM using an Ultraturrax homogenizer and centrifuged for 10 minutes at 23,500×g. The pellet was washed once by resuspension and rehomogenization and the final pellet was resuspended in Tris-HCl, divided in 1 ml aliquots and stored at −70° C.
(§3) Membranes were thawed and re-homogenized in incubation buffer (glycylglycine 25 mM, pH 8.0). […] Filters were rinsed extensively with ice-cold rinsing buffer (Tris-HCl 50 mM pH 7.4). Filter-bound radioactivity was determined by scintillation counting in a Topcount (Packard, Meriden, Conn.) and results were expressed as counts per minute (cpm). Non-specific binding was determined in the presence of 1 μM oxymetazoline for the hα2A receptor and 1 μM spiroxatrine for hα2C receptor.
(§4) Data from assays in the presence of compound were calculated as a percentage of total binding measured in the absence of test compound. Inhibition curves, plotting percent of total binding versus the log value of the concentration of the test compound, were automatically generated, and sigmoidal inhibition curves were fitted using non-linear regression. The pIC50 values of test compounds were derived from individual curves.

5HT-Transporter = target: T2, 5HT-Transporter (Homo sapiens, UniProt P31645); test: Binding experiment for the 5HT-transporter ([3H]paroxetine, human platelet membranes); conditions: [3H]paroxetine 0.5 nM; for IC50: read-out: h-5HTT pIC50 (converted)
T2 construct: Human platelet membranes (Oceanix Biosciences Corporation, Hanover, Md., USA) were thawed; tissue Oceanix Biosciences Corporation, Hanover, Md., USA; host or cells: human platelet membranes
T2 sequence (P31645 whole entry): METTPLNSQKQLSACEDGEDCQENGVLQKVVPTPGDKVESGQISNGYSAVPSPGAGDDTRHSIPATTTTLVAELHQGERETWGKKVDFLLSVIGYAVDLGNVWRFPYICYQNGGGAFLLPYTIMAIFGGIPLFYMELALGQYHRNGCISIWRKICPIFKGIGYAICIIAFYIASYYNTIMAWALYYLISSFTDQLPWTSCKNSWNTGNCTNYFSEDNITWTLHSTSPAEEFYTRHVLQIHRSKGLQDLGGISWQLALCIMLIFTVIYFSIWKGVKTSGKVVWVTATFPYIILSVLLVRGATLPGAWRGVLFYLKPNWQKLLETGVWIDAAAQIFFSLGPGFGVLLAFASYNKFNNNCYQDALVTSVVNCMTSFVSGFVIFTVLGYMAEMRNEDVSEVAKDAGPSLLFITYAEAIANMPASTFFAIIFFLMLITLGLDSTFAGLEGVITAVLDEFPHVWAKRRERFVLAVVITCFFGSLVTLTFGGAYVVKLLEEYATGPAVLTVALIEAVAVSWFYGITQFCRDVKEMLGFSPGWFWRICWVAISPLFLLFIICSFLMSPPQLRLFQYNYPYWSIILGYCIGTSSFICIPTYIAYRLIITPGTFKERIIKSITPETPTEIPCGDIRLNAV
Method: as §1
Human platelet membranes (Oceanix Biosciences Corporation, Hanover, Md., USA) were thawed, diluted in buffer (Tris-HCl 50 mM, 120 mM NaCl and 5 mM KCl) and quickly (max 3 s) homogenised with an Ultraturrax homogenizer. […] Incubation was stopped by rapid filtration of the incubation mixture over GF/B filters, pre-wetted with 0.1% polyethyleneamine, using a Filtermate196 harvester (Packard, Meriden, Conn.). Filters were rinsed extensively with ice-cold buffer and radioactivity on the filters was counted in a Topcount liquid scintillation counter (Packard, Meriden, Conn.). Data were expressed as cpm. Imipramine (at 1 μM final concentration) was used to determine the non-specific binding.
as §4

hα2A receptor = target: T3, hα2A receptor (Homo sapiens, UniProt P08913); test: Radioligand binding experiment for α2A-adrenoceptor ([3H]raulwolscine, CHO cell membranes); conditions: [3H]raulwolscine binding; for IC50: read-out: h-α2A pIC50 (converted)
T3 construct: expressed in transfected cells; host or cells: CHO cells, stably transfected; membrane preparation
T3 sequence (P08913 1-465): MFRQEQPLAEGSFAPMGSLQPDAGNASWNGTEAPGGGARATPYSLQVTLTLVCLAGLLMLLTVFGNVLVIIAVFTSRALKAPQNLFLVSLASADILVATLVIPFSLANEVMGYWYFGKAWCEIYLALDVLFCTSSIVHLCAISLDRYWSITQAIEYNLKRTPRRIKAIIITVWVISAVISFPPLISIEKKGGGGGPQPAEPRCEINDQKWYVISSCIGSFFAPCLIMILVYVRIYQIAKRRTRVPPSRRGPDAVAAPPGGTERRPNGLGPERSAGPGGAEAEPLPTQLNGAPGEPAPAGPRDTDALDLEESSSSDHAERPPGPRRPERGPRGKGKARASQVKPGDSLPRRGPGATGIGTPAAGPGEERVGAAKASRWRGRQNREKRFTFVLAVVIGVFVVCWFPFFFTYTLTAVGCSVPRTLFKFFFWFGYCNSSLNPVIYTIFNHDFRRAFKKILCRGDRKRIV
Method: as §1, §2, §3, §4

Structure (SMILES)	IC50 (hα2C receptor)	IC50 (5HT-Transporter)	IC50 (hα2A receptor)	h-α2C pIC50 (hα2C receptor)	h-5HTT pIC50 (5HT-Transporter)	h-α2A pIC50 (hα2A receptor)
C/C(=C\c1ccccc1)CN1CCC(Nc2nccn(CCCN)c2=O)CC1 [1-1]	6.31 nM	2000 nM	63.1 nM			
C/C(=C\c1ccccc1)CN1CCC(Nc2nccn(CCCN)c2=O)CC1 [1-2]			39.8 nM			
C/C(=C\c1ccccc1)CN1CCC(Nc2nccn(CCC(N)=O)c2=O)CC1 [1-3]	31.6 nM	> 10000 nM	200 nM			
C/C(=C\c1ccccc1)CN1CCC(Nc2nccn(-c3cccc(N)c3)c2=O)CC1 [1-4]	5.01 nM	3160 nM	31.6 nM			
C/C(=C\c1ccccc1)CN1CCC(Nc2nccn(-c3ccc(N)cc3)c2=O)CC1 [1-5]	6.31 nM	2000 nM	100 nM			
C/C(=C\c1ccccc1)CN1CCC(Nc2nccn(Cc3ccc(CN)cc3)c2=O)CC1 [1-7]	3.16 nM	794 nM	15.8 nM			
CNCCCn1ccnc(NC2CCN(C/C(C)=C/c3ccccc3)CC2)c1=O [1-8]	3.16 nM	3980 nM	50.1 nM			
CNCc1ccc(Cn2ccnc(NC3CCN(C/C(C)=C/c4ccccc4)CC3)c2=O)cc1 [1-9]	3.98 nM	1580 nM	31.6 nM			
CCCNC(=O)Cn1ccnc(NC2CCN(C/C(C)=C/c3ccccc3)CC2)c1=O [1-10]	10 nM	2000 nM	126 nM			
CCCNCc1cccc(-n2ccnc(NC3CCN(C/C(C)=C/c4ccccc4)CC3)c2=O)c1 [1-11]	1 nM	631 nM	3.16 nM			
CCCNCc1cccc(-n2ccnc(NC3CCN(C/C(C)=C/c4ccccc4)CC3)c2=O)c1 [1-12]				9.0	6.1	8.4
CCCNC(=O)c1ccc(-n2ccnc(NC3CCN(C/C(C)=C/c4ccccc4)CC3)c2=O)cc1 [1-13]	7.94 nM	398 nM	79.4 nM			
C/C(=C\c1ccccc1)CN1CCC(Nc2nccn(CCCN(C)C)c2=O)CC1 [1-15]	3.98 nM	7940 nM	50.1 nM			
CCN(CC)c1cccc(-n2ccnc(NC3CCN(C/C(C)=C/c4ccccc4)CC3)c2=O)c1 [1-17]	1.58 nM	1000 nM	5.01 nM			
CCN(CC)c1ccc(C(=O)Cn2ccnc(NC3CCN(C/C(C)=C/c4ccccc4)CC3)c2=O)cc1 [1-18]	12.6 nM	1000 nM	39.8 nM			
CCCN(C)C(=O)Cn1ccnc(NC2CCN(C/C(C)=C/c3ccccc3)CC2)c1=O [1-19]	10 nM	1580 nM	126 nM			
C/C(=C\c1ccccc1)CN1CCC(Nc2nccn(CC(=O)N(C)C3CCCCC3)c2=O)CC1 [1-20]	3.98 nM	1000 nM	79.4 nM			
C/C(=C\c1ccccc1)CN1CCC(Nc2nccn(CC(=O)N(C)CCO)c2=O)CC1 [1-21]	20 nM	2510 nM	316 nM			
COCCNC(=O)c1ccc(-n2ccnc(NC3CCN(C/C(C)=C/c4ccccc4)CC3)c2=O)cc1 [1-22]	12.6 nM	631 nM	100 nM			
COCCCNC(=O)Cn1ccnc(NC2CCN(C/C(C)=C/c3ccccc3)CC2)c1=O [1-23]	6.31 nM	2510 nM	200 nM			

Structure (SMILES)	IC50 (hα2C receptor)	IC50 (5HT-Transporter)	IC50 (hα2A receptor)	h-α2C pIC50 (hα2C receptor)	h-5HTT pIC50 (5HT-Transporter)	h-α2A pIC50 (hα2A receptor)
COCCN(C)C(=O)Cn1ccnc(NC2CCN(C/C(C)=C/c3ccccc3)CC2)c1=O [1-24]	7.94 nM	3160 nM	126 nM			
COCCN(C)Cc1cccc(-n2ccnc(NC3CCN(C/C(C)=C/c4ccccc4)CC3)c2=O)c1 [1-25]	1 nM	1580 nM	5.01 nM			
COCCN(C)Cc1ccc(-n2ccnc(NC3CCN(C/C(C)=C/c4ccccc4)CC3)c2=O)cc1 [1-26]				8.7	5.8	7.2
COCCN(C)C(=O)c1ccc(-n2ccnc(NC3CCN(C/C(C)=C/c4ccccc4)CC3)c2=O)cc1 [1-27]	2.51 nM	501 nM	31.6 nM			
C#CCN(C)C(=O)Cn1ccnc(NC2CCN(C/C(C)=C/c3ccccc3)CC2)c1=O [1-28]	5.01 nM	2510 nM	79.4 nM			
CC(=O)NCc1ccc(-n2ccnc(NC3CCN(C/C(C)=C/c4ccccc4)CC3)c2=O)cc1 [1-29]				8.1	6.0	7.0
CC(=O)NCc1ccc(Cn2ccnc(NC3CCN(C/C(C)=C/c4ccccc4)CC3)c2=O)cc1 [1-30]	31.6 nM	1260 nM	158 nM			
CCCC(=O)NCc1ccc(Cn2ccnc(NC3CCN(C/C(C)=C/c4ccccc4)CC3)c2=O)cc1 [1-31]	50.1 nM	794 nM	200 nM			
C/C(=C\c1ccccc1)CN1CCC(Nc2nccn(CCCNCc3ccccc3)c2=O)CC1 [1-46]		316 nM	39.8 nM			
C/C(=C\c1ccccc1)CN1CCC(Nc2nccn(CCCNCc3ccccc3)c2=O)CC1 [1-47]		501 nM	25.1 nM			
C/C(=C\c1ccccc1)CN1CCC(Nc2nccn(CCN3CCCCC3)c2=O)CC1 [2-4]	3.16 nM	2510 nM				
C/C(=C\c1ccccc1)CN1CCC(Nc2nccn(CCN3CCOCC3)c2=O)CC1 [2-40]	25.1 nM					
COCCn1ccnc(NC2CCN(C/C(C)=C/c3ccccc3)CC2)c1=O [3-5]	39.8 nM		316 nM			
C/C(=C\c1ccccc1)CN1CCC(Nc2nccn(-c3ccccn3)c2=O)CC1 [6-9]	5.01 nM		25.1 nM			
C/C(=C\c1ccccc1)CN1CCC(Nc2nccn(-c3ccccn3)c2=O)CC1 [6-10]	3.16 nM		12.6 nM			
C/C(=C\c1ccccc1)CN1CCC(Nc2ncc[nH]c2=O)CC1 [7-1]	31.6 nM		100 nM			
CC(=O)Cn1ccnc(NC2CCN(C/C(C)=C/c3ccccc3)CC2)c1=O [7-7]	12.6 nM		50.1 nM			
C/C(=C\c1ccccc1)CN1CCN(c2nccn(CCCN3CCCC3=O)c2=O)CC1 [9-1]	251 nM		2000 nM			
CN(C)CCCn1ccnc(NC2CCN(C/C=C/c3ccccc3)CC2)c1=O [16-2]	63.1 nM		501 nM			
